Source: US20030073731A1, “Compositions and methods of the use thereof achiral analogues of CC-1065 and the duocarmycins” (priority 2000, published 2003)

What was measured:
[1] = system: plasmid pBR322 DNA; experiment: Taq polymerase stop assay; format: biochemical
[2] = mice, therapeutic doses; cited from earlier work
[3] = system: K562 human chronic myeloid leukemia cells; experiment: cells; format: cell-based
Description: The cytotoxicity was determined using a MTT tetrazolium dye assay (42). […] The incubation was terminated by centrifugation (5 minutes, 300 g) and the cells were washed once with drug-free medium. Following the appropriate drug treatment, the cells were transferred to 96-well microtitre plates, 10^4 cells per well, 8 wells per sample. Plates were then kept in the dark at 37° C. in a humidified atmosphere containing 5% CO2. […] Following incubation of the plates for 4 days (to allow control cells to increase in number by 10 fold) 20 μL of a 5 mg/mL solution of MTT in phosphate buffered saline was added to each well and the plates further incubated for 5 hours. The plates were then centrifuged for 5 minutes at 300 g and the bulk of the medium pipetted from the cell pellet leaving 10-20 μL per well. 200 μL DMSO was added to each well and the samples agitated to ensure complete mixing. The optical density was the read at a wavelength of 550 nm on a Titertek Multiscan ELISA plate reader, and the dose-response curve was constructed.

[4] = system: L1210 leukemia cells; experiment: cells; format: cell-based, murine; conditions: Mus musculus; L1210, 72 hr incubation
Description: (§1) The P815 and L1210 cell lines were obtained from American Type Tissue Culture Collection (ATCC). The cell lines were grown in Delbecco's Modified Eagle Medium (DMEM, Atlanta Biologicals) supplemented with 10% fetal bovine serum, Hepes Buffer (2 mM, Mediatech Cellgro, 25-060-Cl), L-Glutamine (2 mM, Mediatech Cellgro), and penicillin/streptomycin (50,000 units penicillin, […] streptomycin, Atlanta Biologicals). Cells were maintained at 37° C. in a 5% humidified CO2 atmosphere. […] This cell suspension (100 μL) was added to 96 well flat-bottom cell culture plates. At this concentration, 80,000 cells were seeded in each well. Drug solutions (dissolved in DMSO and diluted in DMEM) were added to each well (5 μL/well) resulting in final concentrations ranging from […] to 1×10^−12 M. Quadruplicate wells were prepared for each drug concentration. The plates were incubated for 72 hr at 37° C. in a 5% CO2 atmosphere. MTT (3-(4,5-dimethylthiazol-2-yl)-2,5-diphenyl tetrazolium bromide) was dissolved in PBS (5 mg/ml). After the indicated cell incubation period, 10 μL of this stock MTT solution was added to each well and the plates were further incubated for 4 h at 37° C. in a 5% CO2 atmosphere. […] The contents of the well were mixed thoroughly by pipetting the cell suspension up and down and the plates were allowed to sit at room temperature for 15 min in order to allow for full development of the purple color. The plates were read on a Dynatech Plate Reader, utilizing Dynex Revelation 3.2 software, with a test wavelenth of 570 nm and a reference wavelength of […].

[5] = system: P815 mastocytoma cells; experiment: cells; format: cell-based, murine; conditions: Mus musculus; P815, 72 hr incubation
Description: as §1

[6] = system: panel of 60 human cancer cell lines; conditions: 48 hour exposure
[7] = system: human tumor cells cultivated in polyvinylidene fluoride (PVDF) hollow fibers; experiment: Hollow fiber assay for preliminary in vivo testing; parameters: species or system mice
Description: For these assays, human tumor cells are cultivated in polyvinylidene fluoride (PVDF) hollow fibers, and a sample of each cell line is implanted into each of two physiologic compartments (intraperitoneal and subcutaneous) in mice. […] Three mice are treated with potential antitumor compounds at each of 2 test doses by the intraperitoneal route using a QD×4 treatment schedule. Vehicle controls consist of 6 mice receiving the compound diluent only. The fiber cultures are collected on the day following the last day of treatment. To assess anticancer effects, viable cell mass is determined for each of the cell lines using a formazan dye (MTT) conversion assay. From this, the %T/C can be calculated using the average optical density of the compound treated samples divided by the average optical density of the vehicle controls. In addition, the net increase in cell mass can be determined for each sample as a sample of fiber cultures are assessed for viable cell mass on the day of implantation into mice. Thus, the cytostatic and cytocidal capacities of the test compound can be assessed.
The data are reported as %T/C for each of the 2 compound doses against each of the cell lines with separate values calculated for the intraperitoneal and subcutaneous samples.
The intraperitoneal and subcutaneous samples are scored separately so that criteria (1) and (2) can be evaluated.

[8] = system: L1210 leukemia; conditions: carzelesin 400 μg/kg, adozelesin 100 μg/kg; cited from earlier work
[9] = system: melanoma; conditions: phase I clinical trial; cited from earlier work
[10] = system: mouse L1210 leukemia cells; conditions: cited from earlier work
[11] = 72 h, continuous exposure (3 days)

## 4-(2-Bromoethyl)-3-[5-(5-benzofuran-2-carboxamido)indole-2-carboxamido]phenol [Compound 2]
[1]
  efficiency in alkylating DNA compared with chloro-compound 1: less efficient in alkylating DNA

## COC(=O)c1cc2c([nH]1)C(=O)C=C1N(C(=O)c3cc4cc(OC)c(OC)c(OC)c4[nH]3)CC3CC123 (single isomer, unassigned; (+)) [DUMSA, (+)-duocarmycin SA]
[2]
  delayed lethality: devoid of this toxic side effect

## COc1cc2cc(C(=O)Nc3cc(N)ccc3CCCl)[nH]c2c(OC)c1OC [Compound 24, 4-(2-Chloroethyl)-3-(5,6,7-trimethoxyindole-2-carboxamido)aniline]
[3]; [11]
  IC50: 1300 ± 300 nM

## COc1cc2cc(C(=O)Nc3cc(N)c4ccccc4c3CCCl)[nH]c2c(OC)c1OC [Compound 25, 4-(2-Chloroethyl)-3-(5,6,7-trimethoxyindole-2-carboxamido)-1-naphthylamine]
[4]
  IC50: 180 nM
[5]
  IC50: 68 nM
[3]; 1 hour exposure
  IC50: 18 nM
[3]; [11]
  IC50: 45 nM
[6]
  cytotoxic activity in the NCI screen: activity in the micromolar range
[7]; hollow fiber studies
  cell kill: cell kill observed
[7]; subcutaneous fibers
  SC score: 8

## COc1cc2cc(C(=O)Nc3cc(O)c4ccccc4c3CCCl)[nH]c2c(OC)c1OC [Compound 26, 4-(2-Chloroethyl)-3-(5,6,7-trimethoxyindole-2-carboxamido)-1-naphthol]
[4]
  IC50: 55 nM
[3]; 1 hour exposure
  IC50: 17 nM
[3]; [11]
  IC50: 150 nM
[6]
  cytotoxic activity in the NCI screen: activity in the micromolar range

## Cc1c[nH]c2c1[C@@]13C[C@@H]1CN(C(=O)c1cc4cc(NC(=O)c5cc6ccccc6o5)ccc4[nH]1)C3=CC2=O [adozelesin]
[8]
  ILS: 90±11 % ILS
[9]
  clinical response: partial response on a melanoma patient

## CCN(CC)c1ccc2cc(C(=O)Nc3ccc4[nH]c(C(=O)N5C[C@@H](CCl)c6c5cc(OC(=O)Nc5ccccc5)c5[nH]cc(C)c65)cc4c3)oc2c1 [carzelesin]
[8]
  ILS: 150±8 % ILS

## (+)-CC1065
[10]; L1210
  IC50: 0.02 nM
[10]; growth of mouse L1210 leukemia cells in culture
  IC50 values: pM range
[2]
  delayed lethality: delayed lethality in mice at therapeutic doses
